Results from patent US7670990B2, “Fungicidal composition comprising a pyridylethylbenzamide derivative and a compound capable of inhibiting mitosis and cell division” (Bayer Cropscience S.A., priority 2004, dated 2010).

System: Erysiphe graminis f. sp. tritici
Assay: Efficacy against Erysiphe graminis f. sp. tritici on wheat plants (preventive spray treatment)
Format: in vivo
Details: Blumeria graminis, single active, wheat sprayed at 1-leaf stage, contaminated after 24 hours, graded 7 to 14 days after contamination vs control plants
Experimental: The active ingredients tested are prepared by potter homogenisation in a mixture of acetone/tween/water. This suspension is then diluted with water to obtain the desired active material concentration.
Wheat plants (Audace variety) in starter cups, sown on 50/50 peat soil-pozzolana substrate and grown at 12° C., are treated at the 1-leaf stage (10 cm tall) by spraying with the aqueous suspension described above.
Plants, used as controls, are treated with an aqueous solution not containing the active material.
After 24 hours, the plants are contaminated by dusting them with Erysiphe graminis f. sp. tritici spores, the dusting being carried out using diseased plants.
Grading is carried out 7 to 14 days after the contamination, in comparison with the control plants.

## COC(=O)Nc1nc2ccccc2[nH]1 [Carbendazim, carbendazim]
  Emax at 62.5 g/ha: 0%
  Emax at 125 g/ha: 16%

## O=C(NCCc1ncc(C(F)(F)F)cc1Cl)c1ccccc1C(F)(F)F [Compound 1, N-{2-[3-chloro-5-(trifluoromethyl)-2-pyridinyl]ethyl}-2-trifluoromethylbenzamide]
  Emax at 62.5 g/ha: 42%
  Emax at 125 g/ha: 63%
